Laboratory results reported in patent US9632088B2, “Methods and compositions for gamma-secretase assay” (MEMORIAL SLOAN-KETTERING CANCER CENTER, priority 2010, dated 2017).

Assays:
[1] = biological target: T1, γ-secretase (HeLa membrane) (Homo sapiens, UniProt P49768); experiment: In vitro N1-Sb1 γ-secretase assay (ALPHA detection with SM320), HeLa membrane; type: biochemical; conditions: 0.25% CHAPSO; for IC50: read-out: IC50 in inhibiting N1-Sb1 cleavage
T1 construct: host or cells: HeLa-S3 cells, total membrane fraction
Protocol: (§1) HeLa membrane fraction was isolated from HeLa-S3 cells (National Cell Culture Center). The cell pellet was resuspended in Buffer A (50 mM MES, 150 mM KCl, 5 mM CaCl2, 5 mM MgCl2) and lysed by passage through a French Press. N2a cells (murine neuroblastoma cells) over-expressing wild-type PS1, or mutants M146L or E280A, were obtained from Dr. Sangram Sisodia (University of Chicago, Chicago, Ill.). These cells were maintained in 50% Dulbecco's modified Eagle's medium high glucose, 50% Opti-Mem Reduced Serum Media, and 10% fetal calf serum. Cultured cells were pelleted by centrifugation and resuspended in hypotonic buffer (40 mM Tris, pH 7.4, 10 mM NaCl, 1 mM EDTA, and 0.5 mM DTT) for 20 minutes before being lysed with a dounce homogenizer. Nuclear debris from the HeLa and N2a cells were pelleted at 3000 rpm for 30 minutes. The resulting supernatants were ultracentrifuged at 100,000×g for 1 hour. The pellet that contained total cell membrane was resuspended in Buffer A. Mouse brains overexpressing knock-in wild type or M146V PS1 (gift from Dr. Hui Zheng, Amylin Pharmaceuticals, San Diego, Calif.) were homogenized with dounce homogenizer. The cell lysate was centrifuged at 3000 rpm for 30 minutes. The supernatants were ultracentrifuged at 100,000×g for 1 hour. Protein concentration was determined with the DC Protein Assay Kit according to the manufacturer's instructions (Bio-Rad, Hercules, Calif.).
An in vitro γ-secretase assay using a novel recombinant APP-derived substrate (termed “Sb4”) is disclosed in co-pending application U.S. Ser. No. 12/776,141. In the present assay based on a Notch-derived substrate, N1-Sb1 was incubated with the cell membrane fraction, prepared as described above, in the presence of 0.25% CHAPSO and 1×PIPES buffer (50 mM PIPES, pH 7.0, 150 mM KCl, 5 mM CaCl2, 5 mM MgCl2. The reaction was incubated at 37° C. for 2 hours. The Perkin Elmer AlphaScreen™ detection system was employed to assay for Notch cleavage. AlphaScreen (PerkinElmer Life and Analytical Sciences, Shelton, Conn.) is a bead based non-radioactive Amplified Luminescent Proximity Homogeneous Assay (ALPHA). When a biological interaction brings the beads together, a cascade of chemical reactions acts to produce a greatly amplified signal. Specifically, upon laser excitation, a photosensitizer in the “Donor” bead converts ambient (triplet) oxygen to the more reactive singlet state. […] As a result no fluorescence signal at 520-620 nm is produced.
In the present system, antibody SM320, Protein A-conjugated acceptor beads, and Streptavidin-conjugated donor beads (PerkinElmer) were added to the reaction at a final concentration of 0.2 μg/ml, 2.5 μg/ml and 5 μg/ml, respectively (diagrammed in FIG. 5A). […] The ALPHA signal was detected using the Envision plate reader (Perkin Elmer). The reactions were excited at 680 nm and signal was detected at 615 nm.
HeLa membrane was incubated with N1-Sb1 substrate in the presence of 0.25% CHAPSO. The γ-secretase cleavage product (cN1-Sb1) was detected by the PerkinElmer proximity assay (ALPHA) using the SM320 antibody, Protein A-conjugated acceptor-beads (which bind SM320) and streptavidin-conjugated donor-beads (which bind biotin) (FIG. 5A). cN1-Sb1 levels in DMSO-treated assay was 10-fold higher than in the presence of the inhibitor L-685,458 (L458; structure shown below)-treated assay. […]

[2] = biological target: T2, M146L PS1 γ-secretase (Homo sapiens, UniProt P49768, M146L); experiment: In vitro N1-Sb1 γ-secretase assay, membrane of N2a cells expressing M146L PS1; type: biochemical, murine; conditions: M146L PS1; read-out: IC50 of γ-secretase inhibition (N1-Sb1 cleavage)
T2 construct: total membrane
Protocol: as §1
(§2) An in vitro γ-secretase assay using a novel recombinant APP-derived substrate (termed “Sb4”) is disclosed in co-pending application U.S. Ser. No. 12/776,141. In the present assay based on a Notch-derived substrate, N1-Sb1 was incubated with the cell membrane fraction, prepared as described above, in the presence of 0.25% CHAPSO and 1×PIPES buffer (50 mM PIPES, pH 7.0, 150 mM KCl, 5 mM CaCl2, 5 mM MgCl2. The reaction was incubated at 37° C. for 2 hours. The Perkin Elmer AlphaScreen™ detection system was employed to assay for Notch cleavage. AlphaScreen (PerkinElmer Life and Analytical Sciences, Shelton, Conn.) is a bead based non-radioactive Amplified Luminescent Proximity Homogeneous Assay (ALPHA). When a biological interaction brings the beads together, a cascade of chemical reactions acts to produce a greatly amplified signal. Specifically, upon laser excitation, a photosensitizer in the “Donor” bead converts ambient (triplet) oxygen to the more reactive singlet state. The singlet state oxygen molecules diffuse into the solvent, and may react with a thioxene derivative in the Acceptor bead if nearby, generating chemiluminescence at 370 nm that further activates fluorophores contained in the same bead. The fluorophores subsequently emit light at 520-620 nm. In the absence of a specific biological interaction, the singlet state oxygen molecules produced by the donor bead go undetected without the close proximity of the acceptor bead. As a result no fluorescence signal at 520-620 nm is produced.
(§3) In the present system, antibody SM320, Protein A-conjugated acceptor beads, and Streptavidin-conjugated donor beads (PerkinElmer) were added to the reaction at a final concentration of 0.2 μg/ml, 2.5 μg/ml and 5 μg/ml, respectively (diagrammed in FIG. 5A). The reaction was incubated in the dark at room-temperature for 4 hours. The ALPHA signal was detected using the Envision plate reader (Perkin Elmer). The reactions were excited at 680 nm and signal was detected at 615 nm.
(§4) The effects of PS1 FAD mutations on Notch cleavage were determined using the new γ-secretase assay described in Example 2. The activities of two PS1 FAD mutations—PS1 M146L and E280A were compared against wild-type PS1 (WT), which has been previously studied (25). Total membrane was isolated from N2a cells that stably express WT, M146L, or E280A mutants. N1-Sb1 was incubated with these membranes and the resulting cN1-Sb1 was detected with SM320. […] The M146L and E280A mutants had 40% and 14% activity remaining, respectively, compared to the activity of the wild type (FIG. 7A). […]

[3] = biological target: T3, wild-type PS1 γ-secretase (Homo sapiens, UniProt P49768); experiment: In vitro N1-Sb1 γ-secretase assay, membrane of N2a cells expressing wild-type PS1; type: biochemical, murine; conditions: wild-type PS1; read-out: IC50 of γ-secretase inhibition (N1-Sb1 cleavage)
T3 construct: total membrane
Protocol: as §1, §2, §3, §4

[4] = biological target: T4, E280A PS1 γ-secretase (Homo sapiens, UniProt P49768, E280A); experiment: In vitro N1-Sb1 γ-secretase assay, membrane of N2a cells expressing E280A PS1; type: biochemical, murine; conditions: E280A PS1; read-out: IC50 of γ-secretase inhibition (N1-Sb1 cleavage)
T4 construct: total membrane
Protocol: as §1, §2, §3, §4

| cN1-Sb1 levels in DMSO-treated assay versus inhibitor-treated assay ([1]; fold higher in DMSO) [fold] | SMILES | IC50 [1] [nM] | IC50 [2] [nM] | IC50 [3] [nM] | IC50 [4] [nM] |
| --- | --- | --- | --- | --- | --- |
|  | CC(NC(=O)Cc1cc(F)cc(F)c1)C(=O)NC1N=C(c2ccccc2)c2ccccc2N(C)C1=O (stereo not drawn) [Compound E] | 1 | 0.76 | 0.78 | 0.71 |
| 10 | CC(C)C[C@H](NC(=O)[C@H](Cc1ccccc1)C[C@@H](O)[C@H](Cc1ccccc1)NC(=O)OC(C)(C)C)C(=O)N[C@@H](Cc1ccccc1)C(N)=O [L458] | 0.7 | 0.45 | 0.5 | 0.46 |
